Broadly, the Cmax is the maximum level reached in the sampled fluid or tissue.

Experimental findings from publication PMC7982521, “Studies on the Changes of Pharmacokinetics Behaviors of Phytochemicals and the Influence on Endogenous Metabolites After the Combination of Radix Bupleuri and Radix Paeoniae Alba Based on Multi-Component Pharmacokinetics and Metabolomics” (Frontiers in Pharmacology, 2021) are described below.

The nature of this series: Multi-component pharmacokinetics in rat plasma after oral administration of RB, RPA or RB-RPA extracts (UPLC-HRMS, non-compartmental analysis). The conditions noted are these: for AUC0-t / AUC0-∞ / Cmax / t1/2 / tmax: rat plasma, mean ± SD, n = 7. The series is classed as in vivo, Sprague-Dawley rats. On the procedure:
(Beijing, China, No. SCXK2018-0011). […] All rats were free to access the water and food until 12 h before the experiment. The animal study was reviewed and approved by the Experimental Animal Ethical Committee of Modern Research Center for Traditional Chinese Medicine, Shanxi University (animal ethic approval number: SXULL2018018), and all experimental procedures were carried out in accordance with the NIH Guide for the Care and Use of Laboratory Animals. After one week of adaptation, twenty-one rats were divided into three groups randomly, with seven rats in each group: 1) RPA group, were oral administration of Radix Paeoniae Alba extract (45 g-herb/kg); 2) RB group, were oral administration of Radix Bupleuri extract (45 g-herb/kg); 3) RB-RPA group, were oral administration of powder mixture of Radix Bupleuri and Radix Paeoniae Alba extracts (containing 45 g-herb/kg Radix Bupleuri and 45 g-herb/kg Radix Paeoniae Alba). […] Each group received intragastric administration with a volume of 10 ml/kg (rat body weight). […] All rats were free to access the water during the experiment. The blood samples at each time point were collected from seven rats. The blood samples were centrifuged at 4,000 rpm for 10 min and frozen at -80°C until analysis. Using a Thermo-Fisher Dionex UltiMate 3000 UHPLC system coupled with a Q Exactive Orbitrap-MS (Thermo-Fisher, United States) and Xcalibur workstation (Thermo-Fisher Scientific Inc.,Waltham, MA, United States) to acquire UPLC-HRMS raw data. Chromatographic separation of herb extracts and plasma samples was performed on an Acquity UPLC HSS T3 column (2.1 mm × 100 mm, 1.8 μm) maintained at 37°C. The flow rate was 0.2 ml/min and the injection volume was 5 μL. […] Mass spectrometry detection conditions were set as follows: the MS data were acquired under positive and negative ionization modes via heated electrospray ionization (HESI) source. […] The Q Exactive Orbitrap-MS has a fast positive and negative ion switching function, which could switch between positive-negative ion modes during the analysis of the same sample. So, we applied the method of switching ion modes in the detection process to quantify all analytes better. […] UPLC/MS/MS calibration and quantitation data were processed with Xcalibur workstation (Thermo-Fisher Scientific Inc., Waltham, MA, United States). For the eight components with standard reference, calculating their concentrations from the standard curves. For the other 30 components without standard reference, their concentrations were analyzed following the regression equations of homologous compounds ([Qiao et al., 2012]): paeoniflorin for P1 and M1 to M3; methylgallate for M4 to M10; saikosaponin […] and […]; saikosaponin […]; saikosaponin […]; saikosaponin B2 for P11 and M25 to […].

Setting [1] is: oral RB single extract 45 g-herb/kg.
Where [2] appears, read: oral RB-RPA mixed extracts (45 g-herb/kg RB + 45 g-herb/kg RPA).
Setting [3] is: oral administration of mixed extracts RB-RPA.
Setting [4] is: oral administration of single extract RPA.

In the case of `C[C@H]1O[C@@H](O[C@H]2CC[C@@]3(C)[C@@H](CC[C@]4(C)[C@@H]3C=C[C@]35OC[C@@]6(CCC(C)(C)C[C@H]63)[C@H](O)C[C@]54C)[C@]2(C)CO)[C@H](O)[C@@H](O[C@@H]2O[C@H](CO)[C@@H](O)[C@H](O)[C@H]2O)[C@H]1O` [Saikosaponin D], under setting [1], the AUC0-t was 67.73 ± 18.62 ng·h/mL, the “AUC0-∞” value was determined as 69.92 ± 17.38 ng·h/mL, the Cmax came out at 42.84 ± 11.53 ng/mL and the t1/2 was 2.01 ± 0.34 h. The same molecule had a tmax under setting [1] of 0.50 ± 0.16 h. In addition, under setting [2], the AUC0-t amounted to 99.98 ± 31.48 ng·h/mL, the “AUC0-∞” value was 103.56 ± 33.67 ng·h/mL, the t1/2 is 2.98 ± 0.89 h and the tmax amounted to 0.87 ± 0.38 h. Further, under “rat, oral RB-RPA group vs single herbal group”, the “change of t1/2 after combination” value is on record as “longer”.

As to Acetyl-saikosaponin B2, under setting [1], the AUC0-t came to 16.86 ± 4.34 ng·h/mL, the “AUC0-∞” value amounted to 19.75 ± 3.88 ng·h/mL, the Cmax was 14.82 ± 4.41 ng/mL and the t1/2 is 3.81 ± 1.29 h. Further, the tmax under setting [1] turned out to be 0.42 ± 0.13 h. Further, under setting [2], the AUC0-t was 23.18 ± 12.77 ng·h/mL, the “AUC0-∞” value came out at 26.03 ± 13.58 ng·h/mL, the Cmax was found to be 12.94 ± 6.29 ng/mL and the t1/2 was found to be 3.18 ± 1.01 h. Moreover, the tmax under setting [2] was 0.42 ± 0.13 h.

As to Paeonimetabolin II, under setting [3], the AUC0-t stood at 9490.91 ± 4705.90 ng·h/mL, the “AUC0-∞” value came out at 13198.67 ± 4477.34 ng·h/mL, the Cmax was 984.50 ± 452.44 ng/mL and the t1/2 was 9.30 ± 2.76 h. The same molecule yielded a tmax under setting [3] of 1.17 ± 0.90 h. Moreover, under setting [4], the AUC0-t was 6694.27 ± 2468.69 ng·h/mL, the “AUC0-∞” value turned out to be 8022.12 ± 2764.81 ng·h/mL, the Cmax turned out to be 850.12 ± 292.63 ng/mL and the t1/2 came to 9.22 ± 2.04 h. This molecule also registered a tmax under setting [4] of 1.04 ± 0.37 h. In addition, under “rat, oral RB-RPA group vs single herbal group (RB or RPA)”, the “change of AUC0-∞ after combination” value is “significantly increased”.

Pyrogallol glucuronide: under setting [3], the AUC0-t was 643.56 ± 348.44 ng·h/mL, the “AUC0-∞” value is 825.47 ± 393.90 ng·h/mL, the Cmax came to 47.97 ± 13.98 ng/mL and the t1/2 was found to be 10.49 ± 2.78 h. This molecule gave a tmax under setting [3] of 2.92 ± 1.43 h. Under setting [4], the AUC0-t stood at 262.73 ± 101.68 ng·h/mL, the “AUC0-∞” value is 336.41 ± 159.76 ng·h/mL, the peak concentration (Cmax) was determined as 34.21 ± 4.94 ng/mL and the t1/2 worked out at 6.16 ± 2.02 h. Further, the tmax under setting [4] turned out to be 2.67 ± 1.85 h. In addition, under “rat, oral RB-RPA vs RPA alone”, the “AUC0-∞ after combination relative to RPA alone” value was 245.38%, the “Cmax after combination relative to RPA alone” value worked out at 140.22% and the “t1/2 after combination relative to RPA alone” value is on record as 170.29%.
